Data published in patent US11116735B2, “Use of substituted benzylideneguanidine derivatives as synergists for polymyxin antibiotics” (GUANGZHOU INSIGHTER BIOTECHNOLOGY CO., LTD., priority 2015, dated 2021).
Where “and” joins values, the source holds several entries; their conditions need not be identical. Equal values may be shown once.

Key:
E. coli 2S-19 = assay: MIC by doubling dilution, colistin sulfate-susceptible E. coli 2S-19; assay type: cell-based, Escherichia coli
E. coli 4D-6 = assay: MIC by doubling dilution, colistin sulfate-resistant E. coli 4D-6
Protocol: (§1) In vitro minimum inhibitory concentrations of colistin sulfate against the strains where the cultures respectively comprised 20.0 ppm of the substituted benzylideneguanidine derivatives were also measured.

weanling piglets = assay: Synergy of compound 3 and colistin sulfate in the feed for weanling piglets; assay type: in vivo, Duroc×Landrace×Large crossbred lean weanling piglets; settings: for Average daily weight gain / Diarrhea rate / Feed conversion ratio: weanling piglets, ten days
Protocol: 120 28-day-aged Duroc×Landrace×Large crossbred lean weanling piglets similar in weight were divided into 12 groups, 10 piglets in each group. For each group, colistin sulfate and/or compound 3 were added into the antibiotic-free creep feed. The piglets were given ad libitum access to feed and water during the experiment. Weight gain, feed efficiency and diarrhea rate of each group within ten days were recorded.

E. coli 5F-1 = assay: MIC by doubling dilution, colistin sulfate-resistant E. coli 5F-1
Protocol: as §1

[1] = 20 ppm colistin sulfate and 150 ppm compound 3 in creep feed (Test, groups 10-12)
[2] = 150 ppm in creep feed, no colistin sulfate (Control 2, groups 7-9)

CC(C)Oc1ccc(C=NN=C(N)NN=Cc2ccc(OC(C)C)cc2)cc1 [Compound 3]
In vitro minimum inhibitory concentration (MIC) of the substance alone (E. coli 2S-19; E. coli 2S-19, colistin sulfate-susceptible, substance alone, derivatives as hydrochlorides): >800 ppm
In vitro MIC of colistin sulfate in the presence of the substituted benzylideneguanidine derivative (E. coli 2S-19; E. coli 2S-19, culture comprised 20.0 ppm of the derivative (hydrochloride), colistin sulfate serially diluted): 0.50 ppm
In vitro minimum inhibitory concentration (MIC) of the substance alone (E. coli 4D-6; E. coli 4D-6, colistin sulfate-resistant, substance alone, derivatives as hydrochlorides): >800 ppm
In vitro MIC of colistin sulfate in the presence of the substituted benzylideneguanidine derivative (E. coli 4D-6; E. coli 4D-6, resistant, culture comprised 20.0 ppm of the derivative (hydrochloride)): 2.0 ppm
Reduction of the diarrhea rate (weanling piglets; groups 10, 11 and 12: colistin sulfate added together with compound 3): 20%
Average daily weight gain (weanling piglets; [1]): 254 g and 248 g and 251 g
Diarrhea rate (weanling piglets; [1]): 12% and 9% and 10%
Feed conversion ratio (weanling piglets; [1]): 1.435 and 1.427 and 1.453
Average daily weight gain (weanling piglets; [2]): 200 g and 205 g and 211 g
Diarrhea rate (weanling piglets; [2]): 36% and 38% and 34%
Feed conversion ratio (weanling piglets; [2]): 1.666 and 1.639 and 1.647
In vitro minimum inhibitory concentration (MIC) of the substance alone (E. coli 5F-1; E. coli 5F-1, colistin sulfate-resistant, substance alone, derivatives as hydrochlorides): >800 ppm
In vitro MIC of colistin sulfate in the presence of the substituted benzylideneguanidine derivative (E. coli 5F-1; E. coli 5F-1, resistant, culture comprised 20.0 ppm of the derivative (hydrochloride)): 1.0 ppm
